Experimental data: patent publication US20200037588A1, “METHODS OF A DROSOPHILA MODEL FOR CHRONIC MYELOID LEUKEMIA (CML) TREATMENT” (American University of Beirut, priority 2018, published 2020)
Where two headings read alike, the source gives them in different places.

Assays:
[1] = test system: GMR-GAL4>w1118 control flies; settings: in vivo
BCR-ABL1 = settings: cited from earlier work
[2] = test system: GMR-GAL4>w1118 control flies; test: Eye development of control flies fed TKI (SEM)

Row | SMILES | eye development in control flies fed drug (in words) [1] | potency for BCR-AB1L inhibition in vitro compared to imatinib (BCR-ABL1) [fold] | eye development in control flies fed drug (in words) [2]
1 | Cc1nc(Nc2ncc(C(=O)Nc3c(C)cccc3Cl)s2)cc(N2CCN(CCO)CC2)n1 [dasatinib] | Normal development | – | –
2 | Cc1ccc(NC(=O)c2ccc(CN3CCN(C)CC3)cc2)cc1Nc1nccc(-c2cccnc2)n1 [imatinib] | Normal development | – | –
3 | Cc1cn(-c2cc(NC(=O)c3ccc(C)c(Nc4nccc(-c5cccnc5)n4)c3)cc(C(F)(F)F)c2)cn1 [nilotinib] | Normal development | 20 | –
4 | Cc1ccc(C(=O)Nc2ccc(CN3CCN(C)CC3)c(C(F)(F)F)c2)cc1C#Cc1cnc2cccnn12 [ponatinib] | – | – | Normal development
